This passage reports Ki results from BindingDB's records for doi:10.7270/Q26M3571 (Nmmlsc, 2007).

Molecules are shown by their SMILES. Bounds are passed on as bounds.

The target in the assay is T1, N-formyl peptide receptor 2 (Homo sapiens, UniProt P25090).
T1 sequence (P25090 whole entry): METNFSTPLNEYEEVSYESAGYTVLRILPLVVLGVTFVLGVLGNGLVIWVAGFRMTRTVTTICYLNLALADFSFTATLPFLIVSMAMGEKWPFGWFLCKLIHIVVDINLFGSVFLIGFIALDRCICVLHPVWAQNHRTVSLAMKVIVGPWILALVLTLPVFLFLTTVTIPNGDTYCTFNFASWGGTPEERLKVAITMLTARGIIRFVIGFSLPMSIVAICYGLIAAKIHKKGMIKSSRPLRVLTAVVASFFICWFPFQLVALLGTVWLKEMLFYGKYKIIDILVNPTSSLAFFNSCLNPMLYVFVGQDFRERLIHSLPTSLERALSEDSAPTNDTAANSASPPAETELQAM
As to the kind of experiment: FPRL1 fluorescent ligand binding inhibitors, dose response, selectivity assay for FPR1 ligand SAR project, cell-based, flow cytometry, Ki from IC50 (AID 723).
In turn, `CC(C)c1ccc(C2C(C(=O)c3ccccc3)C(=O)C(=O)N2Cc2cccnc2)cc1` (stereo unspecified) [(4E)-4-[hydroxy(phenyl)methylene]-5-p-cumenyl-1-(3-pyridylmethyl)pyrrolidine-2,3-quinone] returned a Ki of over 40.3 µM. In the case of `O=C1NC(c2ccc(Br)cc2)C(C(=O)c2ccc(Cl)cc2)C1=O` (stereo unspecified) [(4E)-5-(4-bromophenyl)-4-[(4-chlorophenyl)-hydroxy-methylene]pyrrolidine-2,3-quinone] it was over 40.3 µM; in that of `O=C1C(=O)N(CCCN2CCOCC2)C(c2cccnc2)C1C(=O)c1cc2ccccc2o1` (stereo unspecified) [3-(1-benzofuran-2-carbonyl)-4-hydroxy-1-(3-morpholin-4-ylpropyl)-2-pyridin-3-yl-2H-pyrrol-5-one], over 40.3 µM; in that of `COc1ccc(C2C(C(=O)c3ccc(C)cc3)C(=O)C(=O)N2Cc2cccnc2)c(OC)c1` (stereo unspecified) [(4E)-5-(2,4-dimethoxyphenyl)-4-[(4-methylphenyl)-oxidanyl-methylidene]-1-(pyridin-3-ylmethyl)pyrrolidine-2,3-dione], over 40.3 µM. Regarding `CCCCCCN1C(=O)C(=O)C(C(=O)c2ccccc2)C1c1ccc(O)c(OC)c1` (stereo unspecified) [(4Z)-1-hexyl-5-(3-methoxy-4-oxidanyl-phenyl)-4-[oxidanyl(phenyl)methylidene]pyrrolidine-2,3-dione], the inhibitory constant (Ki) was over 40.3 µM.

In the case of `COc1ccc(C(=O)C2C(=O)C(=O)N(CCc3c[nH]c4ccccc34)C2c2ccc(C(C)C)cc2)cc1` (stereo unspecified), the Ki is over 40.3 µM. In the case of `COCCN1C(=O)C(=O)C(C(=O)c2ccccc2)C1c1ccc(C(C)C)cc1` (stereo unspecified) [(4E)-1-(2-methoxyethyl)-4-[oxidanyl(phenyl)methylidene]-5-(4-propan-2-ylphenyl)pyrrolidine-2,3-dione] it was over 40.3 µM; in that of `COc1ccc(C2C(C(=O)c3cccs3)C(=O)C(=O)N2CCN2CCOCC2)c(OC)c1` (stereo unspecified) [2-(2,4-dimethoxyphenyl)-1-(2-morpholin-4-ylethyl)-4-oxidanyl-3-thiophen-2-ylcarbonyl-2H-pyrrol-5-one], over 40.3 µM. Next, `COc1ccc(C2C(C(=O)c3ccco3)C(=O)C(=O)N2CCN2CCOCC2)c(OC)c1` (stereo unspecified) [5-(2,4-dimethoxyphenyl)-4-(furan-2-carbonyl)-3-hydroxy-1-(2-morpholinoethyl)-1H-pyrrol-2(5H)-one]: over 40.3 µM; `COc1ccc(C2C(C(=O)c3ccccc3)C(=O)C(=O)N2c2cccc(Cl)c2)c(OC)c1` (stereo unspecified) [(4E)-1-(3-chlorophenyl)-5-(2,4-dimethoxyphenyl)-4-[hydroxy(phenyl)methylene]pyrrolidine-2,3-quinone]: over 40.3 µM. In the case of `COc1cc(C2C(C(=O)c3cc4ccccc4o3)C(=O)C(=O)N2CCN(C)C)ccc1O` (stereo unspecified) [3-(1-benzofuran-2-carbonyl)-1-[2-(dimethylamino)ethyl]-4-hydroxy-2-(4-hydroxy-3-methoxyphenyl)-2H-pyrrol-5-one] it was over 40.3 µM; in that of `COc1ccc(OC)c(C2C(C(=O)c3ccccc3)C(=O)C(=O)N2c2ccc(C)c(Cl)c2)c1` (stereo unspecified) [(4E)-1-(3-chloranyl-4-methyl-phenyl)-5-(2,5-dimethoxyphenyl)-4-[oxidanyl(phenyl)methylidene]pyrrolidine-2,3-dione], over 40.3 µM; in that of `COCCCN1C(=O)C(=O)C(C(=O)c2ccccc2)C1c1ccc(O)c(OC)c1` (stereo unspecified) [(4E)-5-(3-methoxy-4-oxidanyl-phenyl)-1-(3-methoxypropyl)-4-[oxidanyl(phenyl)methylidene]pyrrolidine-2,3-dione], over 40.3 µM. Regarding `O=C1C(=O)N(CCCn2ccnc2)C(c2cccnc2)C1C(=O)c1cc2ccccc2o1` (stereo unspecified) [3-(1-benzofuran-2-carbonyl)-4-hydroxy-1-(3-imidazol-1-ylpropyl)-2-pyridin-3-yl-2H-pyrrol-5-one], the Ki was over 40.3 µM. On to `COc1ccc(C(=O)C2C(=O)C(=O)NC2c2ccc(OC)cc2OC)cc1` (stereo unspecified) [(4Z)-5-(2,4-dimethoxyphenyl)-4-[(4-methoxyphenyl)-oxidanyl-methylidene]pyrrolidine-2,3-dione], for which the Ki is over 40.3 µM. Next, `O=C1C(=O)N(CN2CCOCC2)C(c2ccc(Br)cc2)C1C(=O)c1ccccc1` (stereo unspecified) [(4E)-5-(4-bromophenyl)-1-(morpholin-4-ylmethyl)-4-[oxidanyl(phenyl)methylidene]pyrrolidine-2,3-dione]: over 40.3 µM; `O=C1C(=O)N(CCc2ccccc2)C(c2ccc(Cl)cc2)C1C(=O)c1cccs1` (stereo unspecified) [2-(4-chlorophenyl)-4-hydroxy-1-(2-phenylethyl)-3-(thiophene-2-carbonyl)-2H-pyrrol-5-one]: over 40.3 µM.

Compound `COCCN1C(=O)C(=O)C(C(=O)c2ccccc2)C1c1ccccc1OC` (stereo unspecified) [(4E)-1-(2-methoxyethyl)-5-(2-methoxyphenyl)-4-[oxidanyl(phenyl)methylidene]pyrrolidine-2,3-dione] gave a Ki of over 40.3 µM.

Turning to `O=C1C(=O)N(CCCn2ccnc2)C(c2cccnc2)C1C(=O)c1ccco1` (stereo unspecified) [3-(furan-2-carbonyl)-4-hydroxy-1-(3-imidazol-1-ylpropyl)-2-pyridin-3-yl-2H-pyrrol-5-one], the Ki was over 40.3 µM. Next, `COc1ccc(C2C(C(=O)c3ccccc3)C(=O)C(=O)N2CCCn2ccnc2)c(OC)c1` (stereo unspecified) [(4E)-5-(2,4-dimethoxyphenyl)-1-(3-imidazol-1-ylpropyl)-4-[oxidanyl(phenyl)methylidene]pyrrolidine-2,3-dione]: over 40.3 µM; `Cc1ccc(C(=O)C2C(=O)C(=O)N(c3nnc(C)s3)C2c2ccc(C(C)C)cc2)cc1` (stereo unspecified) [(4E)-4-[(4-methylphenyl)-oxidanyl-methylidene]-1-(5-methyl-1,3,4-thiadiazol-2-yl)-5-(4-propan-2-ylphenyl)pyrrolidine-2,3-dione]: over 40.3 µM; `COc1ccc(C2C(C(=O)c3cc4ccccc4o3)C(=O)C(=O)N2CCN(C)C)cc1OC` (stereo unspecified) [3-(1-benzofuran-2-carbonyl)-2-(3,4-dimethoxyphenyl)-1-[2-(dimethylamino)ethyl]-4-hydroxy-2H-pyrrol-5-one]: over 40.3 µM. In the case of `COc1ccc(OC)c(C2C(C(=O)c3ccc(C)cc3)C(=O)C(=O)N2CCC(=O)O)c1` (stereo unspecified) [3-[(3E)-2-(2,5-dimethoxyphenyl)-3-[(4-methylphenyl)-oxidanyl-methylidene]-4,5-bis(oxidanylidene)pyrrolidin-1-yl]propanoic acid] it was over 40.3 µM. For the compound `N#Cc1c(N=C(CC(=O)c2ccccc2)C(=O)O)sc2c1CCC2` [(Z)-2-[(3-cyano-5,6-dihydro-4H-cyclopenta[b]thiophen-2-yl)amino]-4-keto-4-phenyl-but-2-enoic acid], the Ki was over 40.3 µM. In the case of `COCCCN1C(=O)C(=O)C(C(=O)c2ccccc2)C1c1ccc(C(C)C)cc1` (stereo unspecified) [(4E)-1-(3-methoxypropyl)-4-[oxidanyl(phenyl)methylidene]-5-(4-propan-2-ylphenyl)pyrrolidine-2,3-dione] it was over 40.3 µM. For `Cc1ccc(C(=O)C2C(=O)C(=O)N(Cc3cccnc3)C2c2ccc(Br)cc2)cc1` (stereo unspecified) [(4E)-5-(4-bromophenyl)-4-[(4-methylphenyl)-oxidanyl-methylidene]-1-(pyridin-3-ylmethyl)pyrrolidine-2,3-dione], the Ki is over 40.3 µM.

For `COc1cc(C2C(C(C)=O)C(=O)C(=O)N2c2ccc(Br)cc2)ccc1O` (stereo unspecified) [1-(4-bromophenyl)-3-ethanoyl-2-(3-methoxy-4-oxidanyl-phenyl)-4-oxidanyl-2H-pyrrol-5-one], the Ki was over 40.3 µM. For `COCCN1C(=O)C(=O)C(C(=O)c2ccccc2)C1c1cc(OC)ccc1OC` (stereo unspecified) [(4E)-5-(2,5-dimethoxyphenyl)-1-(2-methoxyethyl)-4-[oxidanyl(phenyl)methylidene]pyrrolidine-2,3-dione], the Ki is over 40.3 µM. The compound `O=C(O)CCCN1C(=O)C(=O)C(C(=O)c2ccccc2)C1/C=C/c1ccccc1` (stereo unspecified) [4-[(4E)-2,3-bis(oxidanylidene)-4-[oxidanyl(phenyl)methylidene]-5-[(E)-2-phenylethenyl]pyrrolidin-1-yl]butanoic acid] returned an inhibition constant Ki of over 40.3 µM. Next, `COc1ccc(C2C(C(=O)c3ccco3)C(=O)C(=O)N2CCCN2CCOCC2)cc1OC` (stereo unspecified) [2-(3,4-dimethoxyphenyl)-3-(furan-2-carbonyl)-4-hydroxy-1-(3-morpholin-4-ylpropyl)-2H-pyrrol-5-one]: over 40.3 µM; `CCCCCCOc1cccc(N2C(=O)C(=O)C(C(=O)c3ccccc3)C2c2cccc(F)c2)c1` (stereo unspecified) [(4Z)-5-(3-fluorophenyl)-1-(3-hexoxyphenyl)-4-[hydroxy(phenyl)methylene]pyrrolidine-2,3-quinone]: over 40.3 µM; `COc1ccc(C2C(C(=O)c3cccs3)C(=O)C(=O)N2CCCn2ccnc2)cc1` (stereo unspecified) [1-(3-imidazol-1-ylpropyl)-2-(4-methoxyphenyl)-4-oxidanyl-3-thiophen-2-ylcarbonyl-2H-pyrrol-5-one]: over 40.3 µM. Next, `COc1ccc(OC)c(C2C(C(=O)c3ccccc3)C(=O)C(=O)N2c2cccnc2)c1` (stereo unspecified) [(4E)-5-(2,5-dimethoxyphenyl)-4-[hydroxy(phenyl)methylene]-1-(3-pyridyl)pyrrolidine-2,3-quinone]: over 40.3 µM; `Cc1ccc(N2C(=O)C(=O)C(C(=O)c3ccccc3)C2c2cccc(F)c2)cc1Br` (stereo unspecified) [(4Z)-1-(3-bromanyl-4-methyl-phenyl)-5-(3-fluorophenyl)-4-[oxidanyl(phenyl)methylidene]pyrrolidine-2,3-dione]: over 40.3 µM. Next, `O=C1C(=O)N(c2ccc(F)cc2)C(c2ccc(Br)cc2)C1C(=O)c1ccccc1` (stereo unspecified) [(4Z)-5-(4-bromophenyl)-1-(4-fluorophenyl)-4-[hydroxy(phenyl)methylene]pyrrolidine-2,3-quinone]: over 40.3 µM. In turn, `CC(=O)C1C(=O)C(=O)N(CCc2c(C)[nH]c3ccccc23)C1c1cccc(F)c1` (stereo unspecified) came in with an inhibition constant (Ki) of over 40.3 µM.
